The target in data set [1] is T1, Solute carrier organic anion transporter family member 2B1 (Rattus norvegicus, UniProt Q9JHI3).
T1 sequence (Q9JHI3 whole entry): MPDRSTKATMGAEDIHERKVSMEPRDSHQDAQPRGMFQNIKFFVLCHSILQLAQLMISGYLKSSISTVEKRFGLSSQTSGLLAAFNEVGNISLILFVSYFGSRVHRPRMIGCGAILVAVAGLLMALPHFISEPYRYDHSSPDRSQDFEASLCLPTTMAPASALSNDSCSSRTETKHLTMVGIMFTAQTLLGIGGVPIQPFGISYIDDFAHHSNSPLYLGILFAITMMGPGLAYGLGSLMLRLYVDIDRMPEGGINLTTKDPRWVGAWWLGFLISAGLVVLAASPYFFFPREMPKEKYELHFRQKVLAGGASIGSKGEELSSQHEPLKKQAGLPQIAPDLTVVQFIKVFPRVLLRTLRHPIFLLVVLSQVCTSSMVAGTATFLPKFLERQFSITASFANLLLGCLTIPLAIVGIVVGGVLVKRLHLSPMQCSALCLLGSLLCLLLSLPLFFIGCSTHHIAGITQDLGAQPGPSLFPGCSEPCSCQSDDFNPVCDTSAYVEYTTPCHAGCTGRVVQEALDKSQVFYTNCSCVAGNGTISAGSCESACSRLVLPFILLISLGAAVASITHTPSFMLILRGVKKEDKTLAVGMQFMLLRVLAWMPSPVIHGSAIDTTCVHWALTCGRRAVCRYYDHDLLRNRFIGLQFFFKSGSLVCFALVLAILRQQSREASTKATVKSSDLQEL
Description: TP_TRANSPORTER: inhibition of PGD2 uptake in Xenopus laevis oocytes. In kind it is functional, cell-based, Oocyte.

Data set [2] deals with T1, Solute carrier organic anion transporter family member 2B1. Put plainly: (§1) TP_TRANSPORTER: uptake in Xenopus laevis oocytes. In kind it is functional, cell-based. To be noted: oocyte.
Substrate in data set [3]: CCCCC/C=C\C\C=C/C=C/C=C/[C@@H](SC[C@@H](NC(=O)CC[C@H](N)C(=O)O)C(=O)NCC(=O)O)[C@@H](O)CCCC(=O)O
The data set is described as §1. In kind it is functional, cell-based, Oocyte.

Substrate in data set [4]: CCCCC[C@H](O)/C=C/[C@H]1C(=O)C[C@H](O)[C@@H]1C/C=C\CCCC(=O)O
The data set is described as §1. In kind it is functional, cell-based, Oocyte.

In ChEMBL document CHEMBL2074151, “Molecular identification of a rat novel organic anion transporter moat1, which transports prostaglandin D(2), leukotriene C(4), and taurocholate” (Biochem Biophys Res Commun, 2000) one finds IC50, Activity and Km data, which are given here for seven molecules.

Molecule `CCCCC[C@H](O)/C=C/[C@H]1[C@H](O)CC(=O)[C@@H]1CCCCCCC(=O)O` [ALPROSTADIL] returned an IC50 in data set [1] of 35.8 nM. Moreover, the Activity entry in data set [2] is “substrate [+]”.

As for `C[C@]12CC[C@H](OS(=O)(=O)O)CC1=CC[C@@H]1[C@@H]2CC[C@]2(C)C(=O)CC[C@@H]12` [PRASTERONE SULFURIC ACID], the Activity entry in data set [2] is “is not a substrate [-]”.

As to `CCCCC[C@H](O)/C=C/[C@H]1[C@H](O)CC(=O)[C@@H]1C/C=C\CCCC(=O)O` [DINOPROSTONE], the Activity entry in data set [2] was “substrate [+]”.

For the molecule `CCCCC[C@H](O)/C=C/[C@H]1OC(O)C[C@H](O)[C@@H]1C/C=C\CCCC(=O)O` (stereo not given in full) [THROMBOXANE B2], in data set [2], the Activity entry was “substrate [+]”.

As to `CCCCC[C@H](O)/C=C/[C@@H]1[C@@H](C/C=C\CCCC(=O)O)[C@@H](O)C[C@H]1O` [DINOPROST], it took 287 nM to reach half-maximal inhibition in data set [1] (IC50). For the same molecule, the Activity result in data set [2] is “is not a substrate [-]”.

Take `CC#CCC(C)[C@H](O)/C=C/[C@@H]1[C@H]2C/C(=C/CCCC(=O)O)C[C@H]2C[C@H]1O` (stereo not given in full) [ILOPROST]: the Activity result in data set [2] was “substrate [+]”.

B1: Solute carrier organic anion transporter family member 2B1 (Rattus norvegicus) (protein)
chain: MPDRSTKATMGAEDIHERKVSMEPRDSHQDAQPRGMFQNIKFFVLCHSILQLAQLMISGYLKSSISTVEKRFGLSSQTSGLLAAFNEVGNISLILFVSYFGSRVHRPRMIGCGAILVAVAGLLMALPHFISEPYRYDHSSPDRSQDFEASLCLPTTMAPASALSNDSCSSRTETKHLTMVGIMFTAQTLLGIGGVPIQPFGISYIDDFAHHSNSPLYLGILFAITMMGPGLAYGLGSLMLRLYVDIDRMPEGGINLTTKDPRWVGAWWLGFLISAGLVVLAASPYFFFPREMPKEKYELHFRQKVLAGGASIGSKGEELSSQHEPLKKQAGLPQIAPDLTVVQFIKVFPRVLLRTLRHPIFLLVVLSQVCTSSMVAGTATFLPKFLERQFSITASFANLLLGCLTIPLAIVGIVVGGVLVKRLHLSPMQCSALCLLGSLLCLLLSLPLFFIGCSTHHIAGITQDLGAQPGPSLFPGCSEPCSCQSDDFNPVCDTSAYVEYTTPCHAGCTGRVVQEALDKSQVFYTNCSCVAGNGTISAGSCESACSRLVLPFILLISLGAAVASITHTPSFMLILRGVKKEDKTLAVGMQFMLLRVLAWMPSPVIHGSAIDTTCVHWALTCGRRAVCRYYDHDLLRNRFIGLQFFFKSGSLVCFALVLAILRQQSREASTKATVKSSDLQEL
As to B1, the Km in data set [3] is 3.2 µM; in data set [4], 0.0355 µM.

For orientation: IC50 means the concentration needed to halve the response being measured. Low values mean higher potency, high ones lower potency. Usually Km stands for the substrate concentration at which the rate is half of its maximum.
